ChEMBL document CHEMBL1142342, “Lignans from the fruits of Forsythia suspensa” (Bioorg Med Chem Lett, 2008)
Calls of active or inactive are those of the source. The rule behind the calls is not given here.

Tests used:
[1] = test system: LLC-PK1; experiment: Inhibition of 3-morpholinosydnonimine-induced LDH release in pig LLC-PK1 cells at 50 uM after 24 hrs; assay type: functional, cell-based; details: Sus scrofa
[2] = test system: LLC-PK1; experiment: Protective effect against 3-morpholinosydnonimine-induced cell death in pig LLC-PK1 cells assessed as viability at 50 uM after 1 hr by MTT assay; assay type: functional; details: Sus scrofa, LLC-PK1, 1 h; read-out: Activity
[3] = test system: LLC-PK1; experiment: Cytotoxicity against pig LLC-PK1 cells; assay type: cell-based, Sus scrofa
[4] = test system: LLC-PK1; experiment: Protective effect against 3-morpholinosydnonimine-induced cell death in pig LLC-PK1 cells after 1 hr by MTT assay; assay type: functional, cell-based; details: Sus scrofa
[5] = test system: LLC-PK1; experiment: Inhibition of 3-morpholinosdynonimine-induced LDH release in pig LLC-PK1 cells at 10 uM after 24 hrs; assay type: functional, cell-based; details: Sus scrofa
[6] = test system: LLC-PK1; experiment: Inhibition of 3-morpholinosydnonimine-induced LDH release in pig LLC-PK1 cells after 24 hrs; assay type: functional, cell-based; details: Sus scrofa

Q: With COc1cc(O)cc([C@H]2OC[C@H](C(=O)c3ccc(O)c(OC)c3)[C@@H]2CO)c1 [FORSYTHIALAN A] as the compound, how does the Activity [1] read?
A: The Activity was “Active”.

Q: And the viability at 50 µM [2]?
A: Its viability at 50 µM is 95%.

Q: What about the Activity [3] of the same compound?
A: Its Activity is “Non-toxic”.

Q: And the Activity [4]?
A: The Activity was “Dose-dependent effect”.

Q: What about the Activity [5] of the same compound?
A: Its Activity is “Active”.

Q: With COc1cc(O)cc([C@H]2OC[C@H](C(=O)c3ccc(OC)c(OC)c3)[C@@H]2CO)c1 [FORSYTHIALAN B] as the compound, how does the viability at 50 µM [2] read?
A: The viability at 50 µM was 85%.

Q: And the Activity [3]?
A: Its Activity is “Non-toxic”.

Q: What about the Activity [4] of the same compound?
A: The Activity was “Dose-dependent effect”.

Q: What about the Activity [6] of the same compound?
A: The Activity was “Active”.
